As usually defined, the boiling point is the temperature of boiling at a given pressure. One may read the melting point as the temperature of the solid-liquid transition.

Details in one data set: not given
Turning to `CCCCCCC(=O)CC`, the boiling point is 190 °C and the melting point was -8 °C.

Compound `Clc1cccc2[nH]nnc12` registered a log10 Koc (L/kg) of 1.98.

On to `CC(C)(C)S`, for which the boiling point was 64 °C, the log10 vapour pressure (mmHg) worked out at 2.26 and the melting point was -0.5 °C.

Compound `COP(=S)(OC)Oc1c(Cl)cc(C)cc1Cl` gave a log10 Koc (L/kg) of 3.7, a log10 vapour pressure (mmHg) of -3.37 and a melting point of 79 °C.

With `C#CC(C)(O)c1ccccc1` (configuration not stated), the boiling point came out at 218 °C and the melting point is 52.3 °C.

As to `CCOC(=O)C#N`, the boiling point amounted to 116 °C.

`C1CCc2nnnn2CC1` came in with a melting point of 59.5 °C.

Compound `Ic1ccc2c(c1)Oc1ccccc1O2` returned a log10 vapour pressure (mmHg) of -4.5 and a melting point of 95 °C.

In the case of `NCCOCCO`, the boiling point was found to be 221 °C and the log10 vapour pressure (mmHg) was -2.81.

The compound `C=CCCCl` came in with a boiling point of 75 °C.

In the case of `CC1CCC(C)(C)C1` (configuration not stated), the boiling point worked out at 105 °C, the log10 vapour pressure (mmHg) came out at 1.05 and the melting point was -142 °C.

For `COC(=O)c1ccc(O)cc1O`, the melting point came out at 120 °C.

`CCP(c1ccccc1)c1ccccc1` gave a boiling point of 293 °C.

For `Clc1ccc(-c2c(Cl)c(Cl)c(Cl)c(Cl)c2Cl)c(Cl)c1`, the log10 Koa was 10.5.

Regarding `O=C1C(Cl)=CC(=NCl)C=C1Cl`, the melting point was 66 °C.

The compound `C#CC(C)(CC)OC(N)=O` (configuration not stated) showed a melting point of 55.8 °C.

As for `O=P(O)(O)CCP(=O)(O)O`, the melting point worked out at 218 °C.

For the compound `CC(CO)N(C)C` (configuration not stated), the boiling point worked out at 150 °C.

In turn, `COC(C)OC` gave a boiling point of 64.5 °C, a log10 vapour pressure (mmHg) of 2.23 and a melting point of -113 °C.

Consider `CCOC(C(=O)c1ccccc1)c1ccccc1` (configuration not stated), for which the melting point turned out to be 62 °C.

As to `C/C=C/C=C/C(=O)OC`, the boiling point amounted to 180 °C and the melting point was 15 °C.

Take `CC(=O)O.CCCCCCCCCCCCCCCCCC1=NCCN1`: the melting point stood at 65 °C.

In the case of `Nc1ccc(Cl)cc1C(=O)O`, the ready biodegradability result is “not readily biodegradable”.

On to `Nc1ccc(S(=O)(=O)Nc2ccc(Cl)nn2)cc1`, for which the melting point worked out at 187 °C.

As for `CSCCSC`, the boiling point was found to be 183 °C.

Compound `Clc1cc(Cl)c2c(c1)oc1cc(Cl)cc(Cl)c12` showed a log10 vapour pressure (mmHg) of -7.73 and a melting point of 207 °C.

Regarding `Cc1ccccc1N(CC1CO1)CC1CO1` (configuration not stated), the ready biodegradability entry is listed as “not readily biodegradable”.

As to `CCCCCCC(C)CC` (configuration not stated), the boiling point worked out at 168 °C and the melting point was -84.8 °C.

`CCCCCCCCCCCCCCCCCCCCCCCCCCCCCCCCCCCCCC`: the boiling point was 512 °C and the ready biodegradability entry was “readily biodegradable”.

`CCOc1ccccc1OCC` came in with a boiling point of 219 °C and a melting point of 44 °C.

For `CCC(CC)CO`, the boiling point is 147 °C and the log10 vapour pressure (mmHg) was determined as 0.185.

Compound `O=C(Cl)C(Cl)=C(Cl)Cl` had a boiling point of 158 °C.

The compound `FC(F)(F)C(Cl)Br` (configuration not stated) showed a boiling point of 50.2 °C, a log10 Henry constant (atm·m³/mol) of -1.69, a log10 vapour pressure (mmHg) of 2.48 and a melting point of -118 °C.

On to `CCN(CC)CCOC(=O)[C@@H]1N2C(=O)[C@@H](NC(=O)Cc3ccccc3)[C@H]2SC1(C)C.I`, for which the melting point was 178 °C.

As to `CC(C)(C)OO`, the log10 vapour pressure (mmHg) amounted to 0.738, the melting point is -8 °C and the ready biodegradability entry is on record as “not readily biodegradable”.

For the compound `NC1CCC1`, the boiling point worked out at 82 °C.

In the case of `C=C(C)[C@@H]1CC[C@@H](C)C[C@@H]1O`, the melting point turned out to be 78 °C.

With `O=[N+]([O-])c1ccc(N=Nc2ccc(O)cc2)cc1`, the log10 vapour pressure (mmHg) is -9.52.

The compound `CCN(CC)c1ccccc1` showed a boiling point of 216 °C, a log10 Koc (L/kg) of 2.08, a log10 vapour pressure (mmHg) of -0.866 and a melting point of -38.8 °C. For the same compound, the ready biodegradability entry is “not readily biodegradable”.

`CC(Cl)(Cl)C(=O)[O][Na]` gave a log10 Koc (L/kg) of 0.

For the compound `c1cnc2ccc3ncccc3c2c1`, the melting point worked out at 177 °C.

Still in this data set, the particulars now being: fish.
In the case of `COP(=S)(OC)Oc1c(Cl)cc(C)cc1Cl`, the log10 BCF came out at 2.86 and the log10 biotransformation half-life (days) is -0.11.

In the case of `CCN(CC)c1ccccc1`, the log10 BCF was found to be 2.01.

`CC(Cl)(Cl)C(=O)[O][Na]` returned a log10 BCF of 0.86.

Values taken from the OPERA property sets (Mansouri et al. 2018).
